Test results reported in ChEMBL document CHEMBL1201862, “PubChem BioAssay data set” (2004).
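How tested: cells in 96-well plates exposed to compound for 48 hours at five concentrations. GI50 is the concentration that inhibits growth by half.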 Active and inactive are the calls of the source. Rule as the data show it: active = GI50 up to about 1.1 µM and inactive = higher.

Key:
Experiment in all cases: DTP human tumour cell line panel, 48 h
[1] = test system: OVCAR-3
[2] = test system: HCC 2998
[3] = test system: HL-60
[4] = test system: EKVX
[5] = test system: LOX IMVI
[6] = test system: SNB-75
[7] = test system: ACHN
[8] = test system: IGROV-1
[9] = test system: CCRF-CEM
[10] = test system: UACC-257
[11] = test system: NCI-H226
[12] = test system: SN12C
[13] = test system: SK-MEL-2
[14] = test system: SK-MEL-5
[15] = test system: RXF 393

| Structure (SMILES) | GI50 [1] | GI50 [2] | GI50 [3] | GI50 [4] | GI50 [5] | GI50 [6] | GI50 [7] | GI50 [8] | GI50 [9] | GI50 [10] | GI50 [11] | GI50 [12] | GI50 [13] | GI50 [14] | GI50 [15] |
| --- | --- | --- | --- | --- | --- | --- | --- | --- | --- | --- | --- | --- | --- | --- | --- |
| O=c1oc2c3ccc4ccccc4c3n(CCN3CCOCC3)c2c2ccccc12 | > 100 µM (inactive) | > 100 µM (inactive) | 87.9 µM (inactive) | 14.8 µM (inactive) | 4.06 µM (inactive) | 6.08 µM (inactive) | 5.6 µM (inactive) | > 100 µM (inactive) | 1.48 µM (inactive) | > 100 µM (inactive) |  |  |  |  |  |
| CCCCCCCCCCCCC(Br)C(=O)NCC(N)=O (stereo not given) | 15 µM (inactive) | 16.1 µM (inactive) | 4.57 µM (inactive) | 20.6 µM (inactive) | 12.4 µM (inactive) | 0.118 µM (active) | 15 µM (inactive) | 9.66 µM (inactive) | 2.45 µM (inactive) | 11.4 µM (inactive) | 1.67 µM (inactive) | 1.73 µM (inactive) | 11.7 µM (inactive) | 4.57 µM (inactive) | 3.6 µM (inactive) |
| COC12OCCN(CCO)C1=CC(=O)C1(C)N=NC(C)C12 (stereo not given) | > 100 µM (inactive) | > 100 µM (inactive) |  | > 100 µM (inactive) | > 100 µM (inactive) | > 100 µM (inactive) | > 100 µM (inactive) | > 100 µM (inactive) | > 100 µM (inactive) | > 100 µM (inactive) | > 100 µM (inactive) | > 100 µM (inactive) |  | > 100 µM (inactive) | > 100 µM (inactive) |
| COc1ccc(/N=N/c2c(-c3ccccc3)nn(C(=O)CC(=O)Nc3ccccc3Cl)c2-c2ccccc2)cc1 | 36.9 µM (inactive) | > 100 µM (inactive) | 22.6 µM (inactive) | > 100 µM (inactive) | > 100 µM (inactive) | 6.12 µM (inactive) | > 100 µM (inactive) | > 100 µM (inactive) | 30.8 µM (inactive) | > 100 µM (inactive) | > 100 µM (inactive) | > 100 µM (inactive) |  | > 100 µM (inactive) | > 100 µM (inactive) |
| COc1cc([C@@H]2c3cc4c(cc3[C@@H](NC(=O)c3ccc(N)cc3)C3COC(=O)[C@@H]32)OCO4)cc(OC)c1O (stereo not given in full) | 7.46 µM (inactive) | 3.61 µM (inactive) | 0.207 µM (active) | 3.62 µM (inactive) | 1.45 µM (inactive) | 1.29 µM (inactive) | 0.597 µM (active) | 1.42 µM (inactive) | 0.292 µM (active) | 9.16 µM (inactive) | 0.881 µM (active) | 0.853 µM (active) | 7.74 µM (inactive) | 2.81 µM (inactive) | 15.7 µM (inactive) |
| CCOC(=N)CC(=O)c1ccccc1 | > 100 µM (inactive) | > 100 µM (inactive) | > 100 µM (inactive) | > 100 µM (inactive) | > 100 µM (inactive) | > 100 µM (inactive) | > 100 µM (inactive) | > 100 µM (inactive) | > 100 µM (inactive) | > 100 µM (inactive) | > 100 µM (inactive) | > 100 µM (inactive) | > 100 µM (inactive) | > 100 µM (inactive) | > 100 µM (inactive) |
| C=C(CS(=O)(=O)c1ccccc1)[P+](c1ccccc1)(c1ccccc1)c1ccccc1 | 14.8 µM (inactive) | 20.8 µM (inactive) | 9.16 µM (inactive) | 30.4 µM (inactive) | 13.5 µM (inactive) | 12.6 µM (inactive) | 21.7 µM (inactive) | 25.7 µM (inactive) | 5.22 µM (inactive) | 8.93 µM (inactive) | 16.4 µM (inactive) | 12.3 µM (inactive) | > 100 µM (inactive) | 13.6 µM (inactive) | 19.2 µM (inactive) |
| Cc1nc2ccccc2c(=O)n1NC(=S)Nc1ccccc1 |  |  | > 100 µM (inactive) |  | > 100 µM (inactive) | 4.99 µM (inactive) | > 100 µM (inactive) | > 100 µM (inactive) | > 100 µM (inactive) | > 100 µM (inactive) | 37.7 µM (inactive) | > 100 µM (inactive) | > 100 µM (inactive) | > 100 µM (inactive) | 75.7 µM (inactive) |
| COC(=O)C(=O)OC1(C(C)=O)CC2(c3ccccc3)OC1(c1ccccc1)c1ccccc12 (stereo not given) | 13.9 µM (inactive) | 16.7 µM (inactive) | 33.5 µM (inactive) | 20.7 µM (inactive) | 15.7 µM (inactive) | 32.7 µM (inactive) |  | 16.3 µM (inactive) | 33.6 µM (inactive) | 16.2 µM (inactive) | 17.3 µM (inactive) | 15 µM (inactive) |  | 15 µM (inactive) | 15.4 µM (inactive) |
| COC(=O)C(C(=O)C(=O)NC1=C(Cl)C(=O)c2ccccc2C1=O)c1csc(-n2nc(-c3ccccc3)cc2-c2ccccc2)n1 (stereo not given) | > 100 µM (inactive) | > 100 µM (inactive) | > 100 µM (inactive) | 9.66 µM (inactive) | > 100 µM (inactive) | 1.65 µM (inactive) | > 100 µM (inactive) | > 100 µM (inactive) | 31 µM (inactive) | > 100 µM (inactive) | > 100 µM (inactive) | > 100 µM (inactive) |  |  | 34.7 µM (inactive) |
| Cc1nc2sccn2c1C(=O)NNC(N)=S | > 100 µM (inactive) | > 100 µM (inactive) | > 100 µM (inactive) | > 100 µM (inactive) | > 100 µM (inactive) |  | > 100 µM (inactive) | > 100 µM (inactive) | > 100 µM (inactive) | > 100 µM (inactive) | > 100 µM (inactive) | > 100 µM (inactive) | > 100 µM (inactive) | > 100 µM (inactive) | > 100 µM (inactive) |
| OC/C=C(\I)CCCOCOCc1ccccc1 | 30.8 µM (inactive) | 34 µM (inactive) | 15.9 µM (inactive) | 36.5 µM (inactive) | 19.2 µM (inactive) | 53.1 µM (inactive) | 32.3 µM (inactive) | 98.2 µM (inactive) | 20.7 µM (inactive) |  | 27.4 µM (inactive) | 42.9 µM (inactive) | 19.2 µM (inactive) | 22.1 µM (inactive) | 16.4 µM (inactive) |
| COC1OC(COCc2ccc(Cl)cc2)C(OCc2ccc(Cl)cc2)C1O (stereo not given) | 19.7 µM (inactive) | 17.7 µM (inactive) | 11.6 µM (inactive) | 19.4 µM (inactive) | 16.9 µM (inactive) | 17.5 µM (inactive) | 18.6 µM (inactive) | 22.8 µM (inactive) | 19.4 µM (inactive) | 16.3 µM (inactive) |  | 14.9 µM (inactive) | 16.3 µM (inactive) | 15.3 µM (inactive) | 15.1 µM (inactive) |
| COc1ccc2nc(NC(=O)C(=O)CC(=O)c3ccc(Cl)cc3)sc2c1 | > 100 µM (inactive) | 56.9 µM (inactive) | > 100 µM (inactive) | 48.1 µM (inactive) |  | 29.4 µM (inactive) | > 100 µM (inactive) | 73.1 µM (inactive) | > 100 µM (inactive) | > 100 µM (inactive) | 96.2 µM (inactive) | > 100 µM (inactive) | > 100 µM (inactive) | > 100 µM (inactive) | 31.3 µM (inactive) |
| Clc1ccccc1C1SCc2nc3ccccc3n21 (stereo not given) | 14.1 µM (inactive) |  | 13 µM (inactive) | 22.6 µM (inactive) | 26.4 µM (inactive) | 3.97 µM (inactive) | 22.1 µM (inactive) | 33.6 µM (inactive) | 30.3 µM (inactive) |  | 26.2 µM (inactive) | 18 µM (inactive) | 22 µM (inactive) | 17.9 µM (inactive) | 24.5 µM (inactive) |
| O=C1c2ccccc2N2Oc3ccccc3C12c1ccccc1 (stereo not given) |  | > 100 µM (inactive) | > 100 µM (inactive) | > 100 µM (inactive) |  | > 100 µM (inactive) | > 100 µM (inactive) | > 100 µM (inactive) | > 100 µM (inactive) | > 100 µM (inactive) | 59.4 µM (inactive) | > 100 µM (inactive) |  | > 100 µM (inactive) | > 100 µM (inactive) |
| CCCCCCC(C)OC(=O)/C=C(\CC(=O)OC(C)CCCCCC)C(=O)OC(C)CCCCCC (stereo not given) | > 100 µM (inactive) | > 100 µM (inactive) | > 100 µM (inactive) | > 100 µM (inactive) | > 100 µM (inactive) | > 100 µM (inactive) | > 100 µM (inactive) | > 100 µM (inactive) |  | > 100 µM (inactive) | > 100 µM (inactive) | > 100 µM (inactive) | > 100 µM (inactive) | > 100 µM (inactive) | > 100 µM (inactive) |
| O=C(CC(=O)C(F)(F)F)c1csc2ccccc12 | 40.9 µM (inactive) | 48.9 µM (inactive) | > 10 µM (inactive) | 33.4 µM (inactive) | 25 µM (inactive) |  | 34.5 µM (inactive) | 23.7 µM (inactive) | 20.4 µM (inactive) | 32.9 µM (inactive) |  | 25 µM (inactive) | 22 µM (inactive) | 26.9 µM (inactive) | 3.13 µM (inactive) |
| CSCC1CC(c2ccc(Cl)cc2)=NO1 (stereo not given) | > 100 µM (inactive) | > 100 µM (inactive) | > 100 µM (inactive) | > 100 µM (inactive) |  | > 100 µM (inactive) | > 100 µM (inactive) | > 100 µM (inactive) | > 100 µM (inactive) | > 100 µM (inactive) | > 100 µM (inactive) | > 100 µM (inactive) | > 100 µM (inactive) | > 100 µM (inactive) |  |
| C=C(COC(C)=O)CC(/C=C(\C)CCC=C(C)C)OC(C)=O (stereo not given) | > 100 µM (inactive) | > 100 µM (inactive) | 74.5 µM (inactive) | > 100 µM (inactive) | 32.2 µM (inactive) | 50.6 µM (inactive) | > 100 µM (inactive) | > 100 µM (inactive) | 70.5 µM (inactive) |  | > 100 µM (inactive) | > 100 µM (inactive) | > 100 µM (inactive) | > 100 µM (inactive) | > 100 µM (inactive) |
